US20060205599A1, “Herbicide combinations comprising specific sulfonamides” (Bayer CropScience GmbH, priority 2003, published 2006)

Legend:
Triticum aestivum = format: in vivo; details: field trial, natural outdoor conditions; visual score about 4 weeks after application vs untreated control, mean of 2-4 plots; application rate g of active substance/hectare: A 5, B 30, C 250, A + B 5 + 30, A + B + C 5 + 30 + 250
Description: The seeds or rhizome pieces of the harmful plants and the useful plants were laid out or were present in the soil, and they were grown under natural outdoor conditions.
During scoring, damage and development of all above-ground parts of plants was assessed. […] In each case, the mean score of 2-4 plots was calculated.

Veronica hederifolia = assay: Herbicidal action (field trials), visual scoring of harmful plant; format: in vivo; details: field trial, natural outdoor conditions; visual score about 4 weeks after application vs untreated control (100% = all plants died), mean of 2-4 plots; application rate g of active substance/hectare: A 5, B 30, C 250, A + B 5 + 30, A + B + C 5 + 30 + 250
Description: The seeds or rhizome pieces of the harmful plants and the useful plants were laid out or were present in the soil, and they were grown under natural outdoor conditions. Treatment with the active compounds or active compound combinations was carried out […] before and/or after the emergence of the plants, generally at the 2- to 4-leaf stage, in various dosages using a water application rate of 100 to 400 l/ha (converted).
After the application (about 4 weeks after the application), the effectiveness of the active compounds or active compound combinations was scored visually by comparing the treated plots to untreated control plants. During scoring, damage and development of all above-ground parts of plants was assessed. Scoring was carried out using a percentage scale (100% effect=all plants had died; 50% effect=50% of the plants and the green parts of the plants have died; 0% effect=no effect observed=like control plant). In each case, the mean score of 2-4 plots was calculated.
The results are shown in the table below; the effect of the individual application of active compounds (A+B) and C being stated in brackets.

Compound	Triticum aestivum % damage (Triticum aestivum) [%]	Veronica hederifolia % effect (Veronica hederifolia) [%]
CCCOc1nn(C(=O)[N-]S(=O)(=O)c2ccccc2C(=O)OC)c(=O)n1C.[Na+] [propoxycarbazone-sodium]	3	30
Cc1cc(Cl)ccc1O[C@H](C)C(=O)O [mecoprop-P, (R)-2-(4-chloro-o-tolyloxy)propionic acid]	0	35
COC(=O)c1ccc(CNS(C)(=O)=O)cc1S(=O)(=O)NC(=O)Nc1nc(OC)cc(OC)n1 [mesosulfuron-methyl, methyl 2-[3-(4,6-dimethoxypyrimidin-2-yl)ureidosulfonyl]-4-methanesulfonaminomethyl-benzoate]	2	7
